Assay results as given in the supplement of paper PMC10627819.

Experiments:
B. subtilis 168 [1] = test: fitness (endpoint OD595 vs no drug) (fraction); higher = more growth
Summary of the method: (§1)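 Fitness is computed from the optical density at which cultures reach stationary phase, divided by the robust mean of no-drug control wells. Any value above 1 is set to 1. Cultures started at OD595 0.01 in 384-well plates with TSB, LB Lennox or CY at 37 °C, and OD595 was read every 30 min for 14 h against a first-reading background.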

S. pneumoniae D39V [2] = test: as above
Summary of the method: as §1

B. subtilis 168 [3] = test: Bliss interaction score (quartile over a dose matrix) (fitness difference); higher = more antagonism (negative = synergy)
Summary of the method: (§2)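 Fitness was derived from optical density at entry into stationary phase, divided by the robust mean of the no-drug wells on the same plate. That reading was taken as OD595, and the ratio was capped at 1. Single-drug fitness was inferred from the combination data. The Bliss score, observed fitness minus the expected product of single-drug fitness, was summarised as quartiles over technical, biological and donor/recipient replicates.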

S. aureus DSM 20231 = test: as above
Summary of the method: as §2

S. pneumoniae D39V [4] = test: as above
Summary of the method: as §2

S. aureus Newman = test: as above
Summary of the method: as §2
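Wherever Bliss interaction score (quartile over a dose matrix) is given: first quartile when negative (synergy) and third quartile when positive (antagonism).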

O=C(O[C@@H]1Cc2c(O)cc(O)cc2O[C@@H]1c1cc(O)c(O)c(O)c1)c1cc(O)c(O)c(O)c1 [EGCG] + CN(C)C(=O)C(CCN1CCC(O)(c2ccc(Cl)cc2)CC1)(c1ccccc1)c1ccccc1 [Loperamide]
fitness
Conditions | first compound 6.25 µg/mL | first compound 12.5 µg/mL | first compound 25 µg/mL | first compound 50 µg/mL
B. subtilis 168 [1], partner 25 µg/mL | – | – | 0.0734 | –
B. subtilis 168 [1], partner 50 µg/mL | – | 0.0521 | 0.0237 | –
B. subtilis 168 [1], partner 100 µg/mL | 0.0302 | 0.0337 | 0.0599 | –
S. pneumoniae D39V [2], partner 17.14 µg/mL | – | 0.91 | 0.921 | 0.965
S. pneumoniae D39V [2], partner 20 µg/mL | – | 0.988 | ≥ 1 | 0.991
S. pneumoniae D39V [2], partner 34.28 µg/mL | – | 0.895 | 0.982 | 0.992
S. pneumoniae D39V [2], partner 40 µg/mL | – | 0.984 | ≥ 1 | ≥ 1

S. pneumoniae D39V [2], partner 68.57 µg/mL, one replicate
Conditions | fitness
first compound 12.5 µg/mL | 0.491
first compound 25 µg/mL | 0.958
first compound 50 µg/mL | 0.891

Conditions | Bliss interaction score
B. subtilis 168 [3] | -0.097
S. aureus DSM 20231 | 0.183
S. aureus Newman | -0.0758
S. pneumoniae D39V [4] | 0.0701

O=C(O[C@@H]1Cc2c(O)cc(O)cc2O[C@@H]1c1cc(O)c(O)c(O)c1)c1cc(O)c(O)c(O)c1 [EGCG] + C[C@H]1COc2c(N3CCN(C)CC3)c(F)cc3c(=O)c(C(=O)O)cn1c23 [Levofloxacin]
fitness, B. subtilis 168 [1], one replicate
Conditions | first compound 6.25 µg/mL | first compound 12.5 µg/mL | first compound 25 µg/mL
partner 0.001 µg/mL | 0.993 | 0.712 | 0.276
partner 0.0078 µg/mL | 0.88 | 0.788 | 0.668

fitness
Conditions | first compound 6.25 µg/mL | first compound 12.5 µg/mL | first compound 25 µg/mL | first compound 50 µg/mL
B. subtilis 168 [1], partner 0.002 µg/mL | 0.941 | – | – | –
B. subtilis 168 [1], partner 0.0039 µg/mL | 0.89 | 0.629 | – | –
B. subtilis 168 [1], partner 0.0312 µg/mL | 0.05 | 0.038 | 0.0206 | –
B. subtilis 168 [1], partner 0.0625 µg/mL | 0.0332 | 0.0286 | 0.0506 | –
B. subtilis 168 [1], partner 0.125 µg/mL | 0.058 | 0.0419 | 0.0505 | –
S. pneumoniae D39V [2], partner 0.1725 µg/mL | – | 0.876 | 0.815 | 0.868
S. pneumoniae D39V [2], partner 0.2 µg/mL | – | 0.925 | 0.904 | 0.845
S. pneumoniae D39V [2], partner 0.345 µg/mL | – | 0.804 | 0.733 | 0.897
S. pneumoniae D39V [2], partner 0.4 µg/mL | – | 0.832 | 0.826 | 0.671
S. pneumoniae D39V [2], partner 0.69 µg/mL | – | – | 0.777 | –
S. pneumoniae D39V [2], partner 0.8 µg/mL | – | 0.333 | 0.262 | 0.337

Conditions | Bliss interaction score
B. subtilis 168 [3] | -0.0322
S. aureus DSM 20231 | -0.055
S. aureus Newman | -0.0447
S. pneumoniae D39V [4] | -0.092

CCC[C@@H]1C[C@@H](C(=O)N[C@@H]([C@H]2O[C@H](SC)[C@H](O)[C@@H](O)[C@H]2O)[C@@H](C)O)N(C)C1 [Lincomycin] + CCC(C)C1C(=O)NC(=C)C(=O)NC(C(=O)NC(CSCC(C(=O)N1)NC(=O)/C(=C/C)/NC(=O)C(C(C)CC)N)C(=O)NC2C(SCC(NC(=O)CNC(=O)C3CCCN3C2=O)C(=O)NC(CCCCN)C(=O)NC4C(SCC(NC(=O)CNC(=O)C(NC(=O)C(NC(=O)C(NC(=O)CNC4=O)C)CC(C)C)CCSC)C(=O)NC(CC(=O)N)C(=O)NC(CCSC)C(=O)NC(CCCCN)C(=O)NC5C(SCC6C(=O)NC(C(=O)NC(CSC(C(C(=O)N6)NC(=O)C(NC5=O)C)C)C(=O)NC(CO)C(=O)NC(C(C)CC)C(=O)NC(CC7=CN=CN7)C(=O)NC(C(C)C)C(=O)NC(=C)C(=O)NC(CCCCN)C(=O)O)CC8=CN=CN8)C)C)C)CC(C)C [Nisin]
main component drawn
Conditions | fitness
B. subtilis 168 [1], first compound 0.1 µg/mL, partner 0.5 µg/mL | 0.888
B. subtilis 168 [1], first compound 0.1 µg/mL, partner 1 µg/mL | 0.873
B. subtilis 168 [1], first compound 0.1 µg/mL, partner 2 µg/mL | 0.542
B. subtilis 168 [1], first compound 0.2 µg/mL, partner 0.5 µg/mL | 0.866
B. subtilis 168 [1], first compound 0.2 µg/mL, partner 1 µg/mL | 0.839
B. subtilis 168 [1], first compound 0.2 µg/mL, partner 2 µg/mL | 0.58
B. subtilis 168 [1], first compound 0.4 µg/mL, partner 0.5 µg/mL | 0.903
B. subtilis 168 [1], first compound 0.4 µg/mL, partner 1 µg/mL | 0.876
B. subtilis 168 [1], first compound 0.4 µg/mL, partner 2 µg/mL | 0.643
S. pneumoniae D39V [2], first compound 0.2 µg/mL, partner 0.4275 µg/mL | 0.751
S. pneumoniae D39V [2], first compound 0.2 µg/mL, partner 0.855 µg/mL | 0.816
S. pneumoniae D39V [2], first compound 0.2 µg/mL, partner 1.71 µg/mL | 0.0439
S. pneumoniae D39V [2], first compound 0.215 µg/mL, partner 3.2 µg/mL | 0.0034
S. pneumoniae D39V [2], first compound 0.215 µg/mL, partner 6.4 µg/mL | 0.0021
S. pneumoniae D39V [2], first compound 0.4 µg/mL, partner 0.4275 µg/mL | 0.711
S. pneumoniae D39V [2], first compound 0.4 µg/mL, partner 0.855 µg/mL | 0.197
S. pneumoniae D39V [2], first compound 0.4 µg/mL, partner 1.71 µg/mL | 0.03
S. pneumoniae D39V [2], first compound 0.43 µg/mL, partner 3.2 µg/mL | 0.0144
S. pneumoniae D39V [2], first compound 0.43 µg/mL, partner 6.4 µg/mL | 0.0124
S. pneumoniae D39V [2], first compound 0.8 µg/mL, partner 0.4275 µg/mL | 0.188
S. pneumoniae D39V [2], first compound 0.8 µg/mL, partner 0.855 µg/mL | 0.124
S. pneumoniae D39V [2], first compound 0.8 µg/mL, partner 1.71 µg/mL | 0.0586
S. pneumoniae D39V [2], first compound 0.86 µg/mL, partner 1.6 µg/mL | 0.0707
S. pneumoniae D39V [2], first compound 0.86 µg/mL, partner 3.2 µg/mL | 0.0001
S. pneumoniae D39V [2], first compound 0.86 µg/mL, partner 6.4 µg/mL | 0.0011

fitness, B. subtilis 168 [1], one replicate, main component drawn
Conditions | partner 1.25 µg/mL | partner 1.6 µg/mL | partner 2.5 µg/mL | partner 3.2 µg/mL | partner 4 µg/mL | partner 5 µg/mL | partner 6.4 µg/mL | partner 8 µg/mL | partner 16 µg/mL
first compound 0.1 µg/mL | – | – | – | – | 0.432 | – | – | 0.0171 | 0.0218
first compound 0.2 µg/mL | – | – | – | – | 0.212 | – | – | 0.0182 | 0.0151
first compound 0.4 µg/mL | 0.885 | 0.635 | 0.621 | 0.0271 | 0.202 | 0.0364 | 0.0378 | 0.0085 | 0.0174
first compound 0.8 µg/mL | 0.858 | 0.572 | 0.573 | 0.0171 | – | 0.065 | 0.035 | – | –
first compound 1.6 µg/mL | 0.836 | 0.571 | 0.356 | 0.0205 | – | 0.0299 | 0.0358 | – | –

main component drawn
Conditions | Bliss interaction score
B. subtilis 168 [3] | 0.0535
S. aureus DSM 20231 | 0.117
S. aureus Newman | 0.0755
S. pneumoniae D39V [4] | -0.0491
